Article PMC6591174, “The beneficial androgenic action of steroidal aromatase inactivators in estrogen-dependent breast cancer after failure of nonsteroidal drugs” (Cell Death & Disease, 2019)

How the values were obtained:
MCF-7 cells = experiment: Cell cycle analysis by flow cytometry; assay type: cell-based, human; settings: 100 nM, 72 h
Experimental: Fig. 2 Proliferative response of cancer cells to indicated compounds. a–c the effect of concentrations of different compounds on the growth of the cells. Cells were cultured in 10% PRF-CT with E2 1 nM (MCF-7 and ZR-75-1) or without E2 (MDA-MB-231) for 3 days before plating. Cells were seeded in 96-well plates and 24 h later they were exposed to different concentrations (1 nM– 10 μM) of compounds for 6 days (MCF-7 and ZR-75-1) or 3 days (MDA-MB-231). Cell growth was measured as described in the “Materials and methods”. The proliferation of cells is expressed as the ratio of the cells compared with the control wells (untreated cells). d, e Influence of different compounds on the cell cycle of MCF-7 cells. MCF-7 cells were cultured in 10% PRF-CT with E2 (1 nM) for 3 days before plating. Cells were seeded in six-well plates and, the next day, starved in PRF for 24 h. Cells were exposed to different compounds at a concentration of 100 nM for 72 h, and then subjected to cell-cycle analysis as described in “Materials and methods”. f MCF-7 cells on poly-L-lysine-coated glass coverslips were exposed to compounds (100 nM) in 10% PRF-CT with 1 nM E2 for 72 h. Control cells were treated with vehicle. DAPI stains DNA, and the secondary anti-mouse antibody to detect the antibody bound to Ki-67 is labeled with the cyanine dye Cy3. The cells were stained with DAPI (blue). Immunofluorescence staining of Ki-67 of cells was observed using fluorescence microscope. Red: Ki-67; blue: nucleus.Typical image is shown. Scale bars: 10 μm. Data represent a mean ± SEM of three independent experiments, each in triplicate; bars, SEM. *P ≤ 0.05 vs. control
Cell cycle kinetics were studied by flow cytometry. MCF-7 cells were cultured in 10% PRF–CT with 1 nM E2 for 3 days prior to seeding on six-well plates (10^5 cells/well). Following seeding of cells, cells were serum starved for 24 h, and then treated with media containing 100 nM of the test compounds for 72 h. Cell-cycle analysis was performed as described by Ando[20].

[1] = tested on: prostate (P), seminal vesicle (SV), levator ani muscle (LA); experiment: Hershberger assay in orchiectomized rats; assay type: in vivo, Wistar male rats; settings: doses as in Fig. 5, s.c. once a day, 12 days, castrated rats
Experimental: Fig. 5 Estimation of the androgenic and myotrophic activities of the indicated compounds obtained by the Hershberger Assay. Wistar male rats were orchiectomized (orchi) or sham-operated (intact) under ether anesthesia. After 14 days of endogenous hormonal decline, animals were randomly allocated to treatment and vehicle groups (n = 6). The numbers at the end of the abbreviations correspond to the dose in mg/kg body weight of the animal. Flutamide was given by gavage (10 mg/kg/day). […] Then the animals were treated once a day. The rats were sacrificed after completion of the 12-day treatment. Following removal, wet weights of the prostate (P), seminal vesicle (SV), levator ani muscle (LA) were determined. a Size and shape of P, SV and LA at the end of the treatment period. b, c, and d, influence of treatment with the compounds alone or together with the antiandrogen flutamide at the indicated doses on the weight of the organs (P, SV and LA) of the castrated animals. The mean wet weight is represented by the bars in the graphs. Values are means ± SEM; bars, SEM. *P ≤ 0.05, **P ≤ 0.01 vs. control
The Hershberger assay was performed according to the guidelines of the rodent Hershberger assay. Male Wistar rats (140 g, 5–6 weeks) were orchiectomized (orchi) or sham-operated (intact) under ether anesthesia. After 14 days of endogenous hormonal decline, animals were randomly allocated to treatment and vehicle groups (n = 6); orchi group = orchi rats receiving sham injections; intact group = sham-operated rats receiving sham injections; treatment group = orchi rats receiving drugs injections by subcutaneous. The antiandrogen flutamide given by gavage (10 mg/kg/day). Drugs were dissolved in ethanol and diluted in corn oil. The animals were treated once a day. Rats were sacrificed after completion of the 12-day treatment. Following removal, the wet weights of the P, SV, and LA muscle were determined. The data of tissue weights are presented as mean ± SEM.

[2] = tested on: AR protein in MCF-7 cells; experiment: AR protein expression by western blot and immunofluorescence; assay type: cell-based, human; settings: incubation 3 days
Experimental: Fig. 3 Influence of indicated compounds on the expression of the AR. […] AR protein expression was analyzed by western blot as described in “Materials and methods”. b The densitometric evaluation of the bands is calculated by ImageJ. The numbers represent the densitometric value relative to untreated control. […] Typical image is shown. Scale bars: 10 μm
Total cell proteins were obtained from 70% confluent cell cultures. Protein extracts of whole cells (50 μg) were denatured, separated by SDS–PAGE and transferred to polyvinylidene fluoride membranes. After blocking with 3% bovine serum albumin in Tris-buffered saline-Tween, membranes were probed overnight at 4 °C. […] After incubation with the appropriate secondary antibody, results were detected using ECL detection reagents. Immunoreactive bands were quantified by densitometry using ImageJ software.
MCF-7 cells were seeded on 24-well plates (2 × 10^4 cells/well) with a poly-L-lysine-coated glass coverslip per well in 10% PRF–CT. […] Cells were visualized with a ×40 objective and a Qimaging digital camera coupled to an Olympus X71 fluorescence microscope using a red fluorescent protein filter.

| SMILES | influence on the cell cycle (G1/G0 increase, S-phase decrease) (MCF-7 cells) | myotrophic effect (LA) [1] | expression of the AR protein [2] | Cyclin D1 mRNA and protein (cyclin D1 in MCF-7 cells) | androgenic effect (P and SVs, size and wet weight) [1] |
| --- | --- | --- | --- | --- | --- |
| C[C@]12CC[C@H]3[C@@H](CCC4=C(O)C(=O)CC[C@@]43C)[C@@H]1CC[C@@H]2O [4-OHT, 4-hydroxytestosterone] | most effective of the tested compunds | a little more myotrophic than 17-HEXE |  |  |  |
| C[C@]12CCC(=O)C[C@@H]1CC[C@@H]1[C@@H]2CC[C@]2(C)[C@@H](O)CC[C@@H]12 [DHT, dihydrotestosterone] | most significant influence on the cell cycle |  | enhanced considerably | decrease |  |
| C=C1C[C@H]2[C@@H]3CC[C@H](O)[C@@]3(C)CC[C@@H]2[C@@]2(C)C=CC(=O)C=C12 [17-HEXE, 17-hydroexemestane] |  |  |  |  | a little more androgenic than 4-OHT |
